Columns and labels:
[1] = target: human KOR receptor (Homo sapiens, UniProt P41145); experiment: IP-One HTRF assay, potency of KOR agonists, dose-response in transiently transfected COS-7 cells; format: cell-based
human KOR receptor, sequence (P41145 whole entry): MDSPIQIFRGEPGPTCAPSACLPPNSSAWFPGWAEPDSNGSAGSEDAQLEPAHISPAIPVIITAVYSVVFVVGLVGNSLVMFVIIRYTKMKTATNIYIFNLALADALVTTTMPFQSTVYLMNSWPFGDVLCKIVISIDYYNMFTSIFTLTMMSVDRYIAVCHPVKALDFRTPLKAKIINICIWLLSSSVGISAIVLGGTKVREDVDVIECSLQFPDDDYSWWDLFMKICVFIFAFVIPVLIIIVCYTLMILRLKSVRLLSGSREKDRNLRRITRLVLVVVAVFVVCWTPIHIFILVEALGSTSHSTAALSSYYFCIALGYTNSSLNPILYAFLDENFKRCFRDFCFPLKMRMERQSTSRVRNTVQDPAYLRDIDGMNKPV

| SMILES | melting point [°C] | EC50 [1] [nM] |
| --- | --- | --- |
| CN(C(=O)Cc1ccc2oc(=O)n(CC(=O)O)c2c1)[C@H](CN1CC[C@@H](O)C1)C1CCCCC1 [Example 97] | 233 to 234 | ≤ 50 |
| O=C(Cc1ccc2oc(=O)[nH]c2c1)N[C@H](CN1CCCC1)c1cccc(O)c1 [Example 84, (S)-N-(1-(3-hydroxyphenyl)-2-(pyrrolidin-1-yl)ethyl)-2-(2-oxo-2,3-dihydrobenzo[d]oxazol-5-yl)acetamide] | 140 to 142 | ≤ 50 |
| CN(C(=O)Cc1ccc2c(c1)NC(=O)C2)[C@H](CN1CC[C@H](O)C1)c1ccccc1 [Example 1, N-((S)-2-((S)-3-hydroxypyrrolidin-1-yl)-1-phenylethyl)-N-methyl-2-(2-oxoindolin-6-yl)acetamide] | 166 to 168 | 51 to 100 |
| O=C(Cc1ccc2ccc(=O)[nH]c2c1)N[C@H](CN1CC[C@H](O)C1)c1ccccc1 | 174 to 176 | – |
| O=C(Cc1ccc2oc(=O)[nH]c2c1)N[C@H](CN1CCCC1)c1ccccc1 [Example 56, (S)-2-(2-oxo-2,3-dihydrobenzo[d]oxazol-5-yl)-N-(1-phenyl-2-(pyrrolidin-1-yl)ethyl) acetamide] | 129 to 130 | ≤ 50 |
| Cn1c(=O)oc2ccc(CC(=O)N[C@H](CN3CCCC3)c3ccccc3)cc21 [Example 61, (S)-2-(3-methyl-2-oxo-2,3-dihydrobenzo[d]oxazol-5-yl)-N-(1-phenyl-2-(pyrrolidin-1-yl)ethyl)acetamide] | 105 to 107 | 51 to 100 |
| CN(C(=O)Cc1ccc2oc(=O)n(Cc3ccccc3)c2c1)[C@H](CN1CCCC1)c1cccc(O)c1 [Example 89, (S)-2-(3-benzyl-2-oxo-2,3-dihydrobenzo[d]oxazol-5-yl)-N-(1-(3-hydroxyphenyl)-2-(pyrrolidin-1-yl)ethyl)-N-methylacetamide] | 165 to 167 | 101 to 1000 |
| O=C1Cc2ccc(CC(=O)N[C@H](CN3CC[C@H](O)C3)C3CCCCC3)cc2N1 [Example 69, N-((S)-1-cyclohexyl-2-((S)-3-hydroxypyrrolidin-1-yl)ethyl)-2-(2-oxoindolin-6-yl)acetamide] | 132 to 133 | ≤ 50 |
| O=C(Cc1ccc2oc(=O)[nH]c2c1)N[C@H](CN1CC[C@H](O)C1)c1ccccc1 [Example 57, N-((S)-2-((S)-3-hydroxypyrrolidin-1-yl)-1-phenylethyl)-2-(2-oxo-2,3-dihydrobenzo[d]oxazol-5-yl)acetamide] | 210 to 211 | ≤ 50 |
| COc1ccc(COc2cccc([C@@H](CN3CCCC3)NC(=O)Cc3ccc4oc(=O)n(Cc5ccccc5)c4c3)c2)cc1 [Example 58, (S)-2-(3-benzyl-2-oxo-2,3-dihydrobenzo[d]oxazol-5-yl)-N-(1-(3-(4-methoxybenzyloxy)phenyl)-2-(pyrrolidin-1-yl)ethyl)acetamide] | 72 to 74 | ≤ 50 |
| CN(C(=O)Cc1ccc2oc(=O)[nH]c2c1)[C@H](CN1CC[C@H](F)C1)c1cccc(-c2nn[nH]n2)c1 [Example 109, N-((S)-1-(3-(2H-tetrazol-5-yl)phenyl)-2-((S)-3-fluoropyrrolidin-1-yl)ethyl)-N-methyl-2-(2-oxo-2,3-dihydrobenzo[d]oxazol-5-yl)acetamide] | 133 to 134 | ≤ 50 |
| CN(C(=O)Cc1ccc2oc(=O)[nH]c2c1)[C@H](CN1CC[C@H](O)C1)C1CCCCC1 [Example 70, N-((S)-1-cyclohexyl-2-((S)-3-hydroxypyrrolidin-1-yl)ethyl)-N-methyl-2-(2-oxo-2,3dihydrobenzo[d]oxazol-5-yl)acetamide] | 130 to 131 | ≤ 50 |
| CN(C(=O)Cc1ccc2oc(=O)n(Cc3ccccc3)c2c1)[C@H](CN1CCCC1)c1cccc(OCC(=O)OC(C)(C)C)c1 [Example 68, (S)-tert-butyl-2-(3-(1-(2-(3-benzyl-2-oxo-2,3-dihydrobenzo[d]oxazol-5-yl)-N-methylacetamido)-2-(pyrrolidin-1-yl)ethyl)phenoxy)acetate] | 111 to 113 | ≤ 50 |
| O=C(Cc1ccc2oc(=O)n(Cc3cccc(-c4nn[nH]n4)c3)c2c1)N[C@H](CN1CCC(O)C1)c1ccccc1 (stereo in doubt) [Example 102, 2-(3-(3-(2H-tetrazol-5-yl)benzyl)-2-oxo-2,3-dihydrobenzo[d]oxazol-5-yl)-N-((S)-2-((S)-3-hydroxypyrrolidin-1-yl)-1-phenylethyl)acetamide] | 235 to 237 | ≤ 50 |
| CN(C(=O)Cc1ccc2ccc(=O)[nH]c2c1)[C@H](CN1CCCC1)c1ccccc1 [Example 49, (S)-N-methyl-2-(2-oxo-1,2-dihydroquinolin-7-yl)-N-(1-phenyl-2-(pyrrolidin-1-yl)ethyl)acetamide] | 170 to 172 | ≥ 1000 |
| O=C(Cc1ccc2oc(=O)n(Cc3ccc(-c4nnn[nH]4)cc3)c2c1)N[C@H](CN1CC[C@H](O)C1)c1ccccc1 [Example 106, 2-(3-(4-(1H-tetrazol-5-yl)benzyl)-2-oxo-2,3-dihydrobenzo[d]oxazol-5-yl)-N-((S)-2-((S)-3-hydroxypyrrolidin-1-yl)-1-phenylethyl)acetamide] | 296 to 297 | ≤ 50 |
| CC(C)(C)OC(=O)COc1cccc([C@@H](CN2CCCC2)NC(=O)Cc2ccc3oc(=O)n(Cc4ccccc4)c3c2)c1 [Example 63, (S)-t-butyl-2-(3-(1-(2-(3-benzyl-2-oxo-2,3-dihydrobenzo[d]oxazol-5-yl)acetamido)-2-(pyrrolidin-1-yl)ethyl)phenoxy)acetate] | 68 to 70 | ≤ 50 |
| NC(=O)c1cccc(Cn2c(=O)oc3ccc(CC(=O)N[C@H](CN4CCCC4)c4ccccc4)cc32)c1 [Example 91, (S)-3-((2-oxo-5-(2-oxo-2-(1-phenyl-2-(pyrrolidin-1-yl)ethylamino)ethyl)benzo[d]oxazol-3(2H)-yl)methyl)benzamide] | 171 to 172 | ≤ 50 |
| N#Cc1cccc(Cn2c(=O)oc3ccc(CC(=O)N[C@H](CN4CCCC4)c4ccccc4)cc32)c1 [Example 46, (S)-2-(3-(3-cyanobenzyl)-2-oxo-2,3-dihydrobenzo[d]oxazol-5-yl)-N-(1-phenyl-2-(pyrrolidin-1-yl)ethyl)acetamide] | 109 to 110 | ≤ 50 |
| CN(C(=O)Cc1ccc2oc(=O)[nH]c2c1)[C@H](CN1CCCC1)c1cccc(-c2nn[nH]n2)c1 [Example 93, (S)-N-(1-(3-(2H-tetrazol-5-yl)phenyl)-2-(pyrrolidin-1-yl)ethyl)-N-methyl-2-(2-oxo-2,3-dihydrobenzo[d]oxazol-5-yl)acetamide] | 240 to 242 | ≤ 50 |
| CN(C(=O)Cc1ccc2oc(=O)[nH]c2c1)[C@H](CN1CCC(O)C1)c1cccc(OCC(=O)O)c1.Cl (stereo in doubt) [Example 96, 2-(3-((S)-2-((R)-3-hydroxypyrrolidin-1-yl)-1-(N-methyl-2-(2-oxo-2,3-dihydrobenzo[d]oxazol-5-yl)acetamido)ethyl)phenoxy)acetic acid] | 95 to 96 | ≤ 50 |
| CN1C(=O)Cc2ccc(CC(=O)N(C)[C@H](CN3CCC(O)C3)c3cccc(-c4nn[nH]n4)c3)cc21 (stereo in doubt) [Example 111, N-((S)-1-(3-(2H-tetrazol-5-yl)phenyl)-2-((S)-3-hydroxypyrrolidin-1-yl)ethyl)-N-methyl-2-(1-methyl-2-oxoindolin-6-yl)acetamide] | 198 to 200 | ≤ 50 |
| CN(C(=O)Cc1ccc2oc(=O)n(Cc3ccc(-c4nnn[nH]4)cc3)c2c1)[C@H](CN1CCC(O)C1)c1ccccc1 (stereo in doubt) [Example 104, 2-(3-(4-(1H-tetrazol-5-yl)benzyl)-2-oxo-2,3-dihydrobenzo[d]oxazol-5-yl)-N-((S)-2-((S)-3-hydroxypyrrolidin-1-yl)-1-phenylethyl)-N-methylacetamide] | 218 to 220 | ≤ 50 |
| O=C1Cc2ccc(CC(=O)N[C@H](CN3CC[C@H](O)C3)c3ccccc3)cc2N1 | 207 to 209 | – |
| CN(C(=O)Cc1ccc2c(c1)NC(=O)C2)[C@H](CN1CC[C@H](F)C1)c1cccc(C#N)c1 [Example 25, N-((S)-1-(3-cyanophenyl)-2-((S)-3-fluoropyrrolidin-1-yl)ethyl)-N-methyl-2-(2-oxoindolin-6-yl)acetamide] | – | ≤ 50 |
| CN(C(=O)Cc1ccc2c(c1)NC(=O)CS2(=O)=O)[C@H](CN1CC[C@H](O)C1)c1cccc(OCC(=O)O)c1 [Example 22, 2-(3-((S)-1-(2-(1,1-dioxido-3-oxo-3,4-dihydro-2H-benzo[b][1,4]thiazin-6-yl)-N-methylacetamido)-2-((S)-3-hydroxypyrrolidin-1-yl)ethyl)phenoxy)acetic acid] | – | ≤ 50 |
| CN(C(=O)Cc1ccc2oc(=O)n(Cc3ccccc3)c2c1)[C@H](CN1CCCC1)c1cccc(OCc2ccccc2)c1 [Example 64, (S)-2-(3-benzyl-2-oxo-2,3-dihydrobenzo[d]oxazol-5-yl)-N-(1-(3-(benzyloxy)phenyl)-2-(pyrrolidin-1-yl)ethyl)-N-methylacetamide] | – | ≤ 50 |
| C#Cc1cccc([C@@H](CN2CC[C@H](O)C2)N(C)C(=O)Cc2ccc3c(c2)NS(=O)(=O)C3)c1 [Example 182, 2-(2,2-dioxido-1,3-dihydrobenzo[c]isothiazol-6-yl)-N-((S)-1-(3-ethynylphenyl)-2-((S)-3-hydroxypyrrolidin-1-yl)ethyl)-N-methylacetamide] | – | ≤ 50 |
| CN(C(=O)Cc1ccc2c(c1)NC(=O)CS2(=O)=O)C(CN1CC[C@H](O)C1)c1ccc(OC(F)(F)F)cc1 (stereo in doubt) [Example 142, 2-(1,1-dioxido-3-oxo-3,4-dihydro-2H-benzo[b][1,4]thiazin-6-yl)-N-((S)-2-((S)-3-hydroxypyrrolidin-1-yl)-1-(4-(trifluoromethoxy)phenyl)ethyl)-N-methylacetamide] | – | ≤ 50 |
| CCC#Cc1cccc([C@@H](CN2CC[C@H](O)C2)N(C)C(=O)Cc2ccc3ncc(=O)[nH]c3c2)c1 [Example 206, N-((S)-1-(3-(but-1-yn-1-yl)phenyl)-2-((S)-3-hydroxypyrrolidin-1-yl)ethyl)-N-methyl-2-(3-oxo-3,4-dihydroquinoxalin-6-yl)acetamide] | – | ≤ 50 |

Reference: patent US9487510B2, “Substituted heterocyclic acetamides as kappa opioid receptor (KOR) agonists” (Dr. Reddy's Laboratories Ltd., priority 2012, dated 2016)
